Measured values: patent US12655151B2, “Ion channel modulators” (Praxis Precision Medicines, Inc., priority 2019, dated 2026)

The molecules below were run against T1, human NaV1.6 (hNaV1.6) (Homo sapiens, UniProt Q9UQD0) (assay: Modulation of late sodium current (INaL) at hNaV1.6, PatchXpress electrophysiology). Conditions: HEK293, HEK-293 cells expressing recombinant human NaV1.6, late current evoked by 300 nM ATX-II, read-out: NaV 1.6 Assay Data (percent inhibition of INaL at hNaV1.6).
T1 construct: expressed in transfected cells; host or cells: HEK-293 (G418 selection)
T1 sequence (Q9UQD0 whole entry): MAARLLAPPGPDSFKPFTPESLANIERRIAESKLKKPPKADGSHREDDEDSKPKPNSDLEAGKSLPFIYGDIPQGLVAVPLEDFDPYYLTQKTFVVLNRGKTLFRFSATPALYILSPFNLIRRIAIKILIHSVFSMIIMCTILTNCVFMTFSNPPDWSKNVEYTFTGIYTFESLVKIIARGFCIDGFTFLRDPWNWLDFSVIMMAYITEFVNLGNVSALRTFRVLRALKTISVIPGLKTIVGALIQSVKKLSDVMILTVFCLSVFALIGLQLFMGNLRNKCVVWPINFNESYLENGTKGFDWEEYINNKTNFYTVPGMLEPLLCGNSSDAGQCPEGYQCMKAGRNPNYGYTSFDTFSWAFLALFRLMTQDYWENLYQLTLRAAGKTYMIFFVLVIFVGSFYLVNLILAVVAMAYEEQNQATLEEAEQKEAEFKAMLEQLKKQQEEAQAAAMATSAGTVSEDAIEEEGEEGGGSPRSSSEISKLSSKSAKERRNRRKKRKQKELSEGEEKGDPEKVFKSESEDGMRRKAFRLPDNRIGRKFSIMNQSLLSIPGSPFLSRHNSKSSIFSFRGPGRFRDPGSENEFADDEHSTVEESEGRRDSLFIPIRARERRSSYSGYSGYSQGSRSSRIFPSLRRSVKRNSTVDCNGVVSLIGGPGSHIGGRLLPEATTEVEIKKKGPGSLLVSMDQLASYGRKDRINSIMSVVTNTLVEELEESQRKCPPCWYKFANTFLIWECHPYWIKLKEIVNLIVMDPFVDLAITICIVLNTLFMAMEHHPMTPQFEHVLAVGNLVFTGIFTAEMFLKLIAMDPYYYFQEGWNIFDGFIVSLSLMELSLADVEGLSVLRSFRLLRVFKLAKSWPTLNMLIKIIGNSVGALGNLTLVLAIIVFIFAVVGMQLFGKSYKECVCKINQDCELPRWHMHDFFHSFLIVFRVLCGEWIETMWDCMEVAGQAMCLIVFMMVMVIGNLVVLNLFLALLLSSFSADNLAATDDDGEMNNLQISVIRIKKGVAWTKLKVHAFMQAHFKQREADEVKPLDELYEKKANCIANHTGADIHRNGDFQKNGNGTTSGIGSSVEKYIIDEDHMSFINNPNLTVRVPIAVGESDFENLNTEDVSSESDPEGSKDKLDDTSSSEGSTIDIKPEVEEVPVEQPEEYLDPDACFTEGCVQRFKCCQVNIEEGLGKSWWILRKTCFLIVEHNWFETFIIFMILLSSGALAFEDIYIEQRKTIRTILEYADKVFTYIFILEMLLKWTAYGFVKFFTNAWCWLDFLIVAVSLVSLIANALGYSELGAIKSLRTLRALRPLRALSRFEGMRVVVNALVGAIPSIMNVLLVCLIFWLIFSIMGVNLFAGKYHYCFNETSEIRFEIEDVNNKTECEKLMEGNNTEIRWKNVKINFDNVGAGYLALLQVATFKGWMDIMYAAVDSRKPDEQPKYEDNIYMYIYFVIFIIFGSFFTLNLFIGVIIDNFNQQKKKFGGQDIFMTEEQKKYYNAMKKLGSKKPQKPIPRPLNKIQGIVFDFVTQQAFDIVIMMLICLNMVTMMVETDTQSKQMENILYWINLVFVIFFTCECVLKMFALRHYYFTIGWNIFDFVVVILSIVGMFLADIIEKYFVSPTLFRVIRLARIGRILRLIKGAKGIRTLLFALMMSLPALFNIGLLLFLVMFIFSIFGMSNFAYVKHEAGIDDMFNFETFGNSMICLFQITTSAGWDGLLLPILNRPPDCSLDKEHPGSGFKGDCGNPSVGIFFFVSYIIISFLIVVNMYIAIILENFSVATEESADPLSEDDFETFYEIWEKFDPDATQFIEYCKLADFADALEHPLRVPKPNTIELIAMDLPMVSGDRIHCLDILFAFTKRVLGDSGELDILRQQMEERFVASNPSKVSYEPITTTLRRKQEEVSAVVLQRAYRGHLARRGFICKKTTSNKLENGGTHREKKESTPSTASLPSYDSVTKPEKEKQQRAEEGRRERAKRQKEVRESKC
Assay type: cell-based
Description: Functional characterization of exemplary compounds to modulate INaL expressed by the NaV1.6 voltage-gated sodium channel was accomplished using the PatchXpress™ high throughput electrophysiology platform (Molecular Devices, Sunnyvale, CA). HEK-293 cells expressing recombinant, human NaV1.6 (hNaV1.6) were grown in DMEM/high-glucose Dulbecco's modified, 10% FBS, 2 mM sodium pyruvate, 10 mM HEPES and 400 μg/mL G418. Cells were grown to 50%-80% confluency prior to harvesting. Trypsinized cells were washed, allowed to recover for 1 hour and then resuspended in extracellular recording solution at a concentration of 1×10^6 cells/ml. The onboard liquid handling facility of the PatchXpress was used for dispensing cells and applying test compounds. NaV late currents were evoked by the application of 300 nM ATX-II. INaL was evoked by depolarizing pulses to 0 mV for 200 ms from a non-inactivating holding potential (e.g., −120 mV) at a frequency of 0.1 Hz. INaL amplitude and stability were determined by analyzing the mean current amplitude over the final 20 ms of the test pulse. Following steady state block with exemplary compounds (e.g., as described herein), a Na+ free solution containing an impermeant cation (e.g., Choline or NDMG) was added to confirm the identity of the sodium current. Percent steady-state inhibition of INaL was calculated as: […], where INaL_compound and INaL_control represent INaL recorded in the presence or absence of compound, respectively.
Results from this assay relating to percent inhibition of INaL at hNaV1.6 (measured using a procedure similar to described above but using HEK-293 cells expressing recombinant, human NaV 1.6 (h NaV 1.6) at 1 μM are summarized in Table 1 below. In this table, “A” indicates inhibition of less than 30%; “B” indicates inhibition of between about 30% to about 70%; and “C” indicates inhibition of greater than 70%. “N/A” indicates not available.
`COC(F)(F)c1nnc2cnc(-c3ccc(O[C@H](C4CC4)C(F)(F)F)nc3)cn12` (single isomer, unassigned) [Compound 5] gave an inhibition at 1 µM greater than 70%.
Work on `COC(F)(F)c1nnc2cnc(-c3ccc(O[C@@H](C4CC4)C(F)(F)F)nc3)cn12` (single isomer, unassigned) [Compound 6] yielded an inhibition at 1 µM greater than 70%.
`COC(F)(F)c1nnc2cnc(-c3ccc(O[C@H](C)C(F)F)nc3)cn12` (single isomer, unassigned) [Compound 9] was tested, and the inhibition at 1 µM was greater than 70%.
Molecule `COC(F)(F)c1nnc2cnc(-c3ccc(O[C@@H](C)C(F)F)nc3)cn12` (single isomer, unassigned) [Compound 10] has an inhibition at 1 µM greater than 70%.
Molecule `CC[C@@H](Oc1ccc(-c2cn3c(C(F)(F)OC)nnc3cn2)cn1)C(F)(F)F` (single isomer, unassigned) [Compound 13] has an inhibition at 1 µM greater than 70%.
`CC[C@H](Oc1ccc(-c2cn3c(C(F)(F)OC)nnc3cn2)cn1)C(F)(F)F` (single isomer, unassigned) [Compound 14] showed an inhibition at 1 µM greater than 70%.
`COC(F)(F)c1nnc2cnc(-c3ccc(O[C@H](C)C(C)(F)F)nc3)cn12` (single isomer, unassigned) [Compound 15] gave an inhibition at 1 µM greater than 70%.
`COC(F)(F)c1nnc2cnc(-c3ccc(O[C@@H](C)C(C)(F)F)nc3)cn12` (single isomer, unassigned) [Compound 16] gave an inhibition at 1 µM of 30 to 70%.
`CCOC(F)(F)c1nnc2cnc(-c3ccc(O[C@H](CC)C(F)(F)F)nc3)cn12` (single isomer, unassigned) [Compound 19] showed an inhibition at 1 µM greater than 70%.
`CCOC(F)(F)c1nnc2cnc(-c3ccc(O[C@@H](CC)C(F)(F)F)nc3)cn12` (single isomer, unassigned) [Compound 20] was tested, and the inhibition at 1 µM was greater than 70%.
For `CCOC(F)(F)c1nnc2cnc(-c3ccc(O[C@H](C)C(F)F)nc3)cn12` (single isomer, unassigned) [Compound 23], the inhibition at 1 µM was greater than 70%.
`CCOC(F)(F)c1nnc2cnc(-c3ccc(O[C@@H](C)C(F)F)nc3)cn12` (single isomer, unassigned) [Compound 24] gave an inhibition at 1 µM greater than 70%.
With `CCOC(F)(F)c1nnc2cnc(-c3ccc(O[C@H](C(C)C)C(F)(F)F)nc3)cn12` (single isomer, unassigned) [Compound 25] the inhibition at 1 µM was greater than 70%.
With `CCOC(F)(F)c1nnc2cnc(-c3ccc(O[C@@H](C(C)C)C(F)(F)F)nc3)cn12` (single isomer, unassigned) [Compound 26] the inhibition at 1 µM was 30 to 70%.
In the case of `COC(F)(F)c1nnc2cnc(-c3ccc(O[C@@H](C(C)C)C(F)(F)F)nc3)cn12` (single isomer, unassigned) [Compound 27], the inhibition at 1 µM is reported as greater than 70%.
With `COC(F)(F)c1nnc2cnc(-c3ccc(O[C@H](C(C)C)C(F)(F)F)nc3)cn12` (single isomer, unassigned) [Compound 28] the inhibition at 1 µM was greater than 70%.
With `CCOC(F)(F)c1nnc2cnc(-c3ccc(O[C@H](C4CC4)C(F)(F)F)nc3)cn12` (single isomer, unassigned) [Compound 29] the inhibition at 1 µM was greater than 70%.
`CCOC(F)(F)c1nnc2cnc(-c3ccc(O[C@@H](C4CC4)C(F)(F)F)nc3)cn12` (single isomer, unassigned) [Compound 30] showed an inhibition at 1 µM greater than 70%.
In the case of `C[C@@H](Oc1ccc(-c2cn3c(C(F)(F)OC4CC4)nnc3cn2)cn1)C(F)(F)F` [Compound 1, (R)-3-(cyclopropoxydifluoromethyl)-6-(6-((1,1,1-trifluoropropan-2-yl)oxy)pyridin-3-yl)-[1,2,4]triazolo[4,3-a]pyrazine], the inhibition at 1 µM is reported as greater than 70%.
`C[C@H](Oc1ccc(-c2cn3c(C(F)(F)OC4CC4)nnc3cn2)cn1)C(F)(F)F` [Compound 2, (S)-3-(cyclopropoxydifluoromethyl)-6-(6-((1,1,1-trifluoropropan-2-yl)oxy)pyridine-3-yl)-[1,2,4]triazolo[4,3-a]pyrazine] was tested, and the inhibition at 1 µM was greater than 70%.
For `CCOC(F)(F)c1nnc2cnc(-c3ccc(O[C@@H](C)C(F)(F)F)nc3)cn12` [Compound 3, (S)-3-(ethoxydifluoromethyl)-6-(6-((1,1,1-trifluoropropan-2-yl)oxy)pyridin-3-yl)-[1,2,4]triazolo[4,3-a]pyrazine], the inhibition at 1 µM was greater than 70%.
`CCOC(F)(F)c1nnc2cnc(-c3ccc(OC(C4CC4)C(F)(F)F)nc3)cn12` (stereo not drawn) [Compound 4, 6-(6-(1-cyclopropyl-2,2,2-trifluoroethoxy)pyridin-3-yl)-3-(ethoxydifluoromethyl)-[1,2,4]triazolo[4,3-a]pyrazine] was tested, and the inhibition at 1 µM was greater than 70%.
`COC(F)(F)c1nnc2cnc(-c3ccc(OC(C(C)C)C(F)(F)F)nc3)cn12` (stereo not drawn) [Compound 7, 3-(difluoro(methoxy)methyl)-6-(6-((1,1,1-trifluoro-3-methylbutan-2-yl)oxy)pyridin-3-yl)-[1,2,4]triazolo[4,3-a]pyrazine] was tested, and the inhibition at 1 µM was greater than 70%.
`CCCOC(F)(F)c1nnc2cnc(-c3ccc(OCC(F)(F)F)nc3)cn12` [Compound 8, 3-[difluoro(propoxy)methyl]-6-[6-(2,2,2-trifluoroethoxy)-3-pyridyl]-[1,2,4]triazolo[4,3-a]pyrazine] gave an inhibition at 1 µM greater than 70%.
`CC(C)OC(F)(F)c1nnc2cnc(-c3ccc(OCC(F)(F)F)nc3)cn12` [Compound 11, 3-[difluoro(isopropoxy)methyl]-6-[6-(2,2,2-trifluoroethoxy)-3-pyridyl]-[1,2,4]triazolo[4,3-a]pyrazine] was tested, and the inhibition at 1 µM was greater than 70%.
`COC(F)(F)c1nnc2cnc(-c3ccc(OC4CC(F)(F)C4(F)F)nc3)cn12` (stereo not drawn) [Compound 12, 3-(difluoro(methoxy)methyl)-6-(6-(2,2,3,3-tetrafluorocyclobutoxy)pyridin-3-yl)-[1,2,4]triazolo[4,3-a]pyrazine] gave an inhibition at 1 µM greater than 70%.
`CCCOC(F)(F)c1nnc2cnc(-c3ccc(O[C@H](C)C(F)(F)F)nc3)cn12` [Compound 17, 3-[difluoro(propoxy)methyl]-6-[6-[(1R)-2,2,2-trifluoro-1-methyl-ethoxy]-3-pyridyl]-[1,2,4]triazolo[4,3-a]pyrazine] was tested, and the inhibition at 1 µM was greater than 70%.
`CC(C)OC(F)(F)c1nnc2cnc(-c3ccc(O[C@H](C)C(F)(F)F)nc3)cn12` [Compound 18, 3-[difluoro(isopropoxy)methyl]-6-[6-[(1R)-2,2,2-trifluoro-1-methyl-ethoxy]-3-pyridyl]-[1,2,4]triazolo[4,3-a]pyrazine] gave an inhibition at 1 µM greater than 70%.
`CCCOC(F)(F)c1nnc2cnc(-c3ccc(O[C@@H](C)C(F)(F)F)nc3)cn12` [Compound 21, (S)-3-(difluoro(propoxy)methyl)-6-(6-((1,1,1-trifluoropropan-2-yl)oxy)pyridin-3-yl)-[1,2,4]triazolo[4,3-a]pyrazine] was tested, and the inhibition at 1 µM was greater than 70%.
`CC(C)OC(F)(F)c1nnc2cnc(-c3ccc(O[C@@H](C)C(F)(F)F)nc3)cn12` [Compound 22, (S)-3-(difluoro(isopropoxy)methyl)-6-(6-((1,1,1-trifluoropropan-2-yl)oxy)pyridin-3-yl)-[1,2,4]triazolo[4,3-a]pyrazine] was tested, and the inhibition at 1 µM was greater than 70%.
